Several values for one entry are separate records, joined by “and”; a condition that tells them apart may be missing. Equal entries are not always repeated.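 Values below derive from 48-hour exposures of cells grown in 96-well plates, with endpoints linearly interpolated between the two concentrations bracketing the appropriate inhibition level. Abbreviation: GI50, concentration required for 50% inhibition of growth. TGI is the concentration that stops growth completely.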
Key:
Experiment in all cases: NCI tumour cell line growth inhibition, 48 h
[1] = test system: A498 renal
[2] = test system: PC-3 prostate
[3] = test system: MDA-MB-435
[4] = test system: TK-10 renal
[5] = test system: SN12C renal
[6] = test system: COLO 205 colon
[7] = test system: OVCAR-5 ovarian
[8] = test system: CCRF-CEM leukemia
[9] = test system: SF-295 CNS
[10] = test system: HCT-116 colon

## COc1ccc(-c2nc(-c3nc4ccc(C(F)(F)F)cc4[nH]3)c3ccccn23)cc1
[1]
  GI50: > 100 µM
  TGI: > 100 µM
[2]
  GI50: 4.73 µM
  TGI: > 100 µM
[3]
  GI50: 47 µM
  TGI: > 100 µM
[4]
  GI50: > 100 µM
  TGI: > 100 µM
[5]
  GI50: > 100 µM
  TGI: > 100 µM
[6]
  GI50: > 100 µM
  TGI: > 100 µM
[7]
  GI50: > 100 µM
  TGI: > 100 µM
[8]
  GI50: 7.4 µM
  TGI: > 100 µM
[9]
  GI50: > 100 µM
  TGI: > 100 µM
[10]
  GI50: 26.1 µM
  TGI: > 100 µM

## COc1ccc(Oc2cc(NCCC(F)(F)F)c3ncc(-c4ccc(C(=O)NC5CC5)c(C)c4)n3n2)c(F)c1F
[1]
  TGI: 25.7 µM
[2]
  GI50: 2.16 µM
  TGI: > 78.5 µM
[3]
  GI50: 2.64 µM
  TGI: > 100 µM
[4]
  GI50: 4.61 µM
  TGI: > 100 µM
[5]
  GI50: 0.527 µM
  TGI: > 100 µM
[6]
  GI50: < 0.0215 µM
  TGI: 50.7 µM
[7]
  GI50: 24.9 µM
  TGI: > 100 µM
[8]
  TGI: > 100 µM
[9]
  GI50: 0.638 µM
  TGI: > 65.3 µM
[10]
  GI50: < 0.01 µM
  TGI: > 54.5 µM

## Nc1nc(-c2cc(-c3cccc4ccccc34)nc(N)n2)cc(-c2cccc3ccccc23)n1
[1]
  TGI: > 100 µM
[2]
  TGI: > 100 µM
[3]
  TGI: > 100 µM
[4]
  TGI: > 100 µM
[5]
  TGI: > 100 µM
[6]
  TGI: > 100 µM
[7]
  TGI: > 100 µM
[8]
  TGI: > 100 µM
[9]
  TGI: > 100 µM
[10]
  TGI: > 100 µM

## CCCCCSC1C2C(=O)C(Br)=CC13CCNc1c(O)c4c5c(c13)=[N+]2CCC=5C=N4 (stereo unspecified)
[1]
  GI50: 3.01 µM
  TGI: 6.61 µM
[2]
  GI50: 2 µM
  TGI: 7.45 µM
[3]
  GI50: 0.304 µM
  TGI: 0.571 µM
[4]
  GI50: 2.98 µM
  TGI: 5.34 µM
[5]
  GI50: 0.414 µM
  TGI: 1.12 µM
[6]
  GI50: 0.303 µM
  TGI: 0.613 µM
[7]
  GI50: 3.07 µM
  TGI: 7.08 µM
[8]
  GI50: 1.01 µM
  TGI: 11.6 µM
[9]
  GI50: 3.89 µM
  TGI: 9.61 µM
[10]
  GI50: 0.419 µM
  TGI: 1.28 µM

## COC(=O)/C(=C\c1c(-c2ccccc2)[nH]c2ccccc12)S(C)(=O)=O
[1]
  GI50: 6.56 µM
  TGI: 21.3 µM
[2]
  GI50: 4.16 µM
  TGI: > 100 µM
[3]
  GI50: 0.671 µM
  TGI: 4.77 µM
[4]
  GI50: 7.71 µM
  TGI: > 100 µM
[5]
  GI50: 3.14 µM
  TGI: 32 µM
[6]
  GI50: 4.39 µM
  TGI: 18.5 µM
[7]
  GI50: 19.6 µM
  TGI: 49.8 µM
[8]
  GI50: 7.62 µM
  TGI: > 100 µM
[9]
  GI50: 3.13 µM
  TGI: 19.9 µM
[10]
  GI50: 4.2 µM
  TGI: 21.4 µM

## Cc1cn2c(/C=N/N=C(N)N)c(-c3ccsc3)nc2s1
[1]
  GI50: 28.3 µM
  TGI: 43.3 µM
[2]
  GI50: 7.5 µM
  TGI: 20.1 µM
[3]
  GI50: 11.1 µM
  TGI: 24.6 µM
[4]
  GI50: 13.4 µM
  TGI: 27.5 µM
[5]
  GI50: 2.27 µM
  TGI: 10.9 µM
[6]
  GI50: 3.18 µM
  TGI: 15 µM
[7]
  GI50: 15.1 µM
  TGI: 28.7 µM
[8]
  GI50: 2.54 µM
  TGI: 6.21 µM
[9]
  GI50: 9.98 µM
  TGI: 22.9 µM
[10]
  GI50: 3.14 µM
  TGI: 12.6 µM

## Cc1ccc(C)c2c(N=Nc3ccccc3[N+](=O)[O-])c(O)[nH]c12
[1]
  TGI: > 100 µM
[2]
  TGI: > 100 µM
[3]
  TGI: > 100 µM
[4]
  TGI: > 100 µM
[5]
  TGI: > 100 µM
[6]
  TGI: > 100 µM
[7]
  TGI: > 100 µM
[8]
  TGI: > 100 µM
[9]
  TGI: > 100 µM
[10]
  TGI: > 100 µM

## Cc1cc2c(cc1C)[n+](Cc1ccc3ccccc3n1)cn2Cc1ccc2ccccc2n1
[1]
  GI50: 1.04 µM
  TGI: 2.36 µM
[2]
  GI50: 0.948 µM
  TGI: 2.98 µM
[3]
  GI50: 0.571 µM
  TGI: 2.05 µM
[4]
  GI50: 1.38 µM
  TGI: 2.74 µM
[5]
  GI50: 0.792 µM
  TGI: 2.17 µM
[6]
  GI50: 0.387 µM
  TGI: 1.58 µM
[7]
  GI50: 1.3 µM
  TGI: 6.89 µM
[8]
  GI50: 1.83 µM
  TGI: 12.8 µM
[9]
  GI50: 1.12 µM
  TGI: 2.63 µM
[10]
  GI50: 0.407 µM
  TGI: 1.74 µM

## CNC(=O)c1cc2c(Oc3ccc(NC(=S)NC(=O)Cc4ccccc4)cc3F)ccnc2cc1OC
[1]
  GI50: 1.1 µM
  TGI: 4.35 µM
[2]
  GI50: 16.7 µM
  TGI: > 100 µM
[3]
  GI50: > 27.6 µM
  TGI: > 100 µM
[4]
  GI50: 5.99 µM
  TGI: > 100 µM
[5]
  GI50: 2.18 µM
  TGI: > 100 µM
[6]
  GI50: 5.37 µM
  TGI: > 100 µM
[7]
  GI50: > 36.1 µM
  TGI: > 100 µM
[8]
  GI50: > 29.9 µM
  TGI: > 100 µM
[9]
  GI50: 0.196 µM
  TGI: > 100 µM
[10]
  GI50: 59.5 µM
  TGI: > 100 µM

## O=C1N[C@H]2[C@H](O)[C@H](O)[C@@H](O)[C@H](O)[C@@H]2c2cc3c(c(O)c21)OCO3
[1]
  GI50: 0.23 µM and 0.796 µM
[2]
  GI50: 0.0381 µM and 0.0661 µM
  TGI: 0.787 µM and 0.48 µM
[3]
  GI50: 0.0249 µM
  TGI: 1.3 µM and 0.14 µM
[4]
  GI50: 0.0561 µM
  TGI: 3.55 µM and 1.69 µM
[5]
  GI50: 0.206 µM and 0.246 µM
  TGI: 2.11 µM and 0.28 µM
[6]
  GI50: 12.8 µM
[7]
  GI50: 0.657 µM and 1.16 µM
  TGI: 9.37 µM and 1.22 µM
[8]
  GI50: 0.137 µM
  TGI: 0.767 µM and 0.485 µM
[9]
  GI50: 0.346 µM and 0.495 µM
  TGI: 3.51 µM and 0.352 µM
[10]
  GI50: 0.129 µM and 0.253 µM
  TGI: 0.682 µM and 1.42 µM and 0.144 µM

## CNCCCn1c2c(c3ccc(F)cc3c1=O)C(=O)c1cc(OC)cnc1-2
[1]
  GI50: 0.369 µM
  TGI: 1.61 µM
[2]
  GI50: 0.37 µM
  TGI: 8.1 µM
[3]
  GI50: 0.471 µM
  TGI: 1.81 µM
[4]
  GI50: 0.332 µM
  TGI: 1.79 µM
[5]
  GI50: 0.211 µM
  TGI: 1.34 µM
[6]
  GI50: 0.0722 µM
  TGI: 1.14 µM
[7]
  GI50: 0.352 µM
  TGI: 1.87 µM
[8]
  GI50: 0.255 µM
  TGI: 10.6 µM
[9]
  GI50: 0.185 µM
  TGI: 0.78 µM
[10]
  GI50: 0.143 µM
  TGI: 0.617 µM

## Clc1ccc(N2CCC(N3CCCC3)CC2)cc1-c1nc2ccccc2[nH]1
[1]
  GI50: 12.8 µM
  TGI: 27.8 µM
[2]
  GI50: 30.9 µM
  TGI: > 100 µM
[3]
  GI50: 17.7 µM
  TGI: 35.7 µM
[4]
  GI50: 20.7 µM
  TGI: 42.2 µM
[5]
  GI50: 25 µM
  TGI: > 73.7 µM
[6]
  GI50: 16 µM
  TGI: 30.8 µM
[7]
  GI50: 26.5 µM
  TGI: > 69.4 µM
[8]
  GI50: 25.9 µM
  TGI: 79.4 µM
[9]
  GI50: 17.4 µM
  TGI: 36.2 µM
[10]
  GI50: 13.1 µM
  TGI: 27.5 µM

## CCCC#CCOC(=O)c1cc([N+](=O)[O-])cc([N+](=O)[O-])c1
[1]
  TGI: > 100 µM
[2]
  TGI: > 100 µM
[3]
  TGI: > 100 µM
[4]
  TGI: > 100 µM
[5]
  TGI: > 100 µM
[6]
  TGI: > 100 µM
[7]
  TGI: > 100 µM
[8]
  TGI: > 100 µM
[9]
  TGI: > 100 µM
[10]
  TGI: > 100 µM

## CC(C)(C)OC(=O)NCCCCCCCCCCn1c2c(c3ccccc3c1=O)C(=O)c1ccccc1-2
[1]
  GI50: 26.2 µM
  TGI: 66 µM
[2]
  GI50: > 100 µM
  TGI: > 100 µM
[3]
  GI50: > 100 µM
  TGI: > 100 µM
[4]
  GI50: 20.3 µM
  TGI: 52.1 µM
[5]
  GI50: > 100 µM
  TGI: > 100 µM
[6]
  GI50: > 100 µM
  TGI: > 100 µM
[7]
  GI50: > 100 µM
  TGI: > 100 µM
[8]
  GI50: 20 µM
  TGI: > 100 µM
[9]
  GI50: 30.9 µM
  TGI: > 100 µM
[10]
  GI50: 60 µM
  TGI: > 100 µM
